Test [1] concerns the target PARG (Homo sapiens (Human), UniProt Q86W56). In words: PARG cell inhibition assay (PAR staining after H2O2). The test is classed as cell-based. The conditions noted are these: UWB1.289 cells; value in brackets. The protocol:
PARG Cell Inhibition Assay
UWB1.289 cells were used and the medium was 50% MEBM+50% 1640+3% FBS+1×PS. The cells were cultured according to ATCC standard operation and the cells were assayed in exponential growth phase for the experiment. Re-suspend cell in medium to a proper concentration, only cells with viability greater than 90% are used for assays.
Seed cells UWB1.289 in each culture medium, incubate overnight at 37° C., 5% CO2.
Test compounds was diluted with DMSO in gradient. Add test compound in cell plate, incubate at 37° C.
Add compounds and H2O2 mixture into cell plate, incubate at 37° C. Use 100 nM PDD00017273 as positive control.
Remove solution and recovery cell, incubate at 37° C.
Remove solution in the plate and add Cold-MeOH, incubate at −20° C.
Add blocking buffer into cell plate, incubate at RT.
Add PAR mAb, incubate at 4° C. overnight.
Add secondary antibody and DNA stain DRAQ5, incubate at RT.
Wash 3 times with PBST and 2 times with PBS. Turn plate upside down and centrifuge 1000 rpm 1 min.
Scan plate using LI-COR for best result.
Calculate the % inhibition according to the following formula: % inhibition=(compound signal value−negative control signal average)/(positive control signal average−negative control signal average)×100. Use the formula Y=Bottom+(Top−Bottom)/(1+10^((Log IC50−X)*HillSlope)) to fit the curve to obtain the IC50 values.

Test [2] has as its target PARG (389-976) (Homo sapiens (Human), UniProt Q86W56). The experiment in a line: PARG enzyme inhibition assay (TR-FRET). The test is classed as biochemical. The protocol:
PARG Enzyme Inhibition Assay
PARG in vitro assays were conducted in standard 384-well plates in a total volume of 15 μL.
Background: Time-resolved FRET reads energy transfer from a long-lived donor to a nearby acceptor.

SMILES strings stand for the structures. A value given as a limit tells only on which side of the number the result lay.

In patent publication US20230278998A1, “Compound containing structure of a five-membered heteroaromatic ring, pharmaceutical compositions thereof and applications thereof” (280 Bio, Inc., priority 2022, published 2023) one finds IC50 data, which are given here for nine compounds.

The IC50 is the concentration at which inhibition is half-maximal.

Chain of PARG (Q86W56 whole entry): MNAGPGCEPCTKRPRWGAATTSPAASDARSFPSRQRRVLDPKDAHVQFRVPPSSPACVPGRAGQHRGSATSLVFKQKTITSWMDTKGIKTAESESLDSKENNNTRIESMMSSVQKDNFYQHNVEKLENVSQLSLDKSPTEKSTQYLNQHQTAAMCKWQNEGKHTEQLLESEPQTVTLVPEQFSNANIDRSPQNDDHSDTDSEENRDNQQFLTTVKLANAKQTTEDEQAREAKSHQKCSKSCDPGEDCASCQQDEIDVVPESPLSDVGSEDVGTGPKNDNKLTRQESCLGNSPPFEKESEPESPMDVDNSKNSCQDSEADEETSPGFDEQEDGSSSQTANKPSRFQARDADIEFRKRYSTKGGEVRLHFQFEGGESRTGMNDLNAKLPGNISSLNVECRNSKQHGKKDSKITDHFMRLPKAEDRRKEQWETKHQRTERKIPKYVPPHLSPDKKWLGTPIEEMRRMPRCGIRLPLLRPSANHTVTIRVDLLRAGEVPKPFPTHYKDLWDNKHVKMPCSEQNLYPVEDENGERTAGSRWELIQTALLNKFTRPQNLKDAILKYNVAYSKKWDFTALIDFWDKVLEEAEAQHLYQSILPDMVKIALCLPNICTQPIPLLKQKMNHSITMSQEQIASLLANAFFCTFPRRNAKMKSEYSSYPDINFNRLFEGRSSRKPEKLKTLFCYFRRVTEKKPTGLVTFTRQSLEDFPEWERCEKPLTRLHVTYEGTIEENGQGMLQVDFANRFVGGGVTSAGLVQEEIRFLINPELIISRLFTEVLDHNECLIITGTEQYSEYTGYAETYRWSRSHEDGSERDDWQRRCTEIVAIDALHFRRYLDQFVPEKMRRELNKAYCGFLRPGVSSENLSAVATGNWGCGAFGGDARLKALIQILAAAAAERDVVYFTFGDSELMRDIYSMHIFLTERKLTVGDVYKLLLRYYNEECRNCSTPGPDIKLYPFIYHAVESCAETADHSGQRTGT
Chain of PARG (389-976) (Q86W56 389-976): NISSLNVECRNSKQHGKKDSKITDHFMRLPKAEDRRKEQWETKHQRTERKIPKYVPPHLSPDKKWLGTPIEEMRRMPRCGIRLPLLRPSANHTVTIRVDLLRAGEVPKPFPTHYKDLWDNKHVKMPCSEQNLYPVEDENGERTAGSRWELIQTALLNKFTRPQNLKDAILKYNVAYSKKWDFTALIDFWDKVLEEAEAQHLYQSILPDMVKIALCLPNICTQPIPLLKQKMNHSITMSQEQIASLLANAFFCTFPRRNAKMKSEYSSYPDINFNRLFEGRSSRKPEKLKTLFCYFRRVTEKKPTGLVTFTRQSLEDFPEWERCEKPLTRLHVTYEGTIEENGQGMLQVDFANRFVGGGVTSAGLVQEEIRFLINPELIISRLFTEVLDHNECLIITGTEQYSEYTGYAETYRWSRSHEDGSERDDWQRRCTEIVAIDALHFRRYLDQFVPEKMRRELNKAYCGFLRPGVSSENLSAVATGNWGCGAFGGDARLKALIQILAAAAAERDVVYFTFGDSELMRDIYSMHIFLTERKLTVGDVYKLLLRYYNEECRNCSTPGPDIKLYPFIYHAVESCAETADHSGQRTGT

`CC(C)C(=O)N1CCN(c2cc(S(=O)(=O)NC3(C#N)CC3)cc3c(-c4nnc(C(F)F)s4)nn(C)c23)CC1` [Compound 17]: the IC50 was 3.6 nM in test [1]; < 100 nM in test [2] (Table 2, class symbol); 0.6 nM in test [2] (Table 2, value in brackets).
On to `Cc1cc(Cn2c(=O)n(Cc3cnc(C)s3)c(=O)c3cc(S(=O)(=O)NC4(C)CC4)ccc32)n(C)n1` [PDD00017273, reference compound], for which the IC50 in test [1] was 13.4 nM; in test [2] (Table 3, class symbol), < 100 nM.
Consider `CC(C)C(=O)N1CCN(c2cc(S(=O)(=O)NC3(C)CC3)cc3c(-c4nnc(C(F)F)s4)nn(C)c23)CC1` [Compound 5], for which the 50% inhibitory concentration (IC50) in test [1] was 3.1 nM; in test [2] (Table 1, class symbol), < 100 nM; in test [2] (Table 1, value in brackets) it was 0.5 nM.
Turning to `Cc1nc(C)c(Cn2nc(-c3nnc(C(F)F)s3)c3cc(S(=O)(=O)NC4(C)CC4)ccc32)s1` [compound 1, reference compound], the IC50 worked out at 14.7 nM in test [1] and 1.9 nM in test [2] (Table 1, value in brackets).
With `CC(C)C(=O)N1CCN(c2cc(S(=O)(=O)NC3(C)CC3)cc3c(-c4nnc(C(F)F)s4)n[nH]c23)CC1` [Compound 3], the IC50 in test [1] is 9.6 nM; in test [2] (Table 1, class symbol), < 100 nM; in test [2] (Table 1, value in brackets), 1 nM.
Regarding `CN(C)C(=O)C1CCN(c2cc(S(=O)(=O)NC3(C#N)CC3)cc3c(-c4nnc(C(F)F)s4)nn(C)c23)CC1` [Compound 90], the half-maximal inhibitory concentration (IC50) in test [2] (Table 3, class symbol) was < 100 nM.
Same read-out and setting: in the case of `CC(C)C(=O)N1CCN(c2cc(S(=O)(=O)NC(C)(C)C)cc3c(-c4nnc(C(F)F)s4)nn(C)c23)CC1` [Compound 131] it was < 100 nM.
Turning to `CCn1nc(-c2nnc(C(F)F)s2)c2cc(S(=O)(=O)NC3(C)CC3)c(F)c(N3CCN(C(=O)C(C)C)CC3)c21` [Compound 67], in test [2] (Table 3, class symbol), the half-maximal inhibitory concentration (IC50) is < 100 nM.
As for `Cn1nc(-c2nnc(C(F)F)s2)c2cc(S(=O)(=O)NC3(C#N)CC3)cc(N3CCOCC3)c21` [Compound 29], in test [2] (Table 2, class symbol), the IC50 was < 100 nM.
